# In PubChem BioAssay AID1549 (Sanford-Burnham Center for Chemical Genomics, 2009):
# The source made the active and inactive calls. The rule behind the calls is not given here.
# Target: Influenza A virus M2 proton channel (A/TW/4845/1999 H1N1)
# Assay: NMR binding screen, influenza A virus M2 proton channel, Kd (AID 1549)
# Conditions: M2 protein
row,SMILES,Kd
1,NC1Cc2ccccc2C1,> 4 mM (inactive)
2,CC(C)=CC(=O)Nc1ccc(S(N)(=O)=O)cc1,> 4 mM (inactive)
3,COc1ccc2c(c1)OC/C(=C/c1ccc(OC)c(OC)c1)C2=O,> 4 mM (inactive)
4,CC(=O)c1cc(-c2nc3ccccc3n2C)n(C)c1,> 4 mM (inactive)
5,CC(=O)O[C@@H]1CC2C(C)(C)[C@@H](O)CC[C@]2(C)C2CC[C@@]3(C)[C@H](c4ccoc4)OC(=O)[C@H]4O[C@]43[C@@]21C (stereo not given in full),> 4 mM (inactive)
6,NC(=O)CSc1nc2[nH]ncc2c(=O)[nH]1,> 4 mM (inactive)
7,COC(=O)c1cc(C)on1,> 4 mM (inactive)
8,O=S(=O)(Nc1cccnc1Cl)c1ccccc1,> 4 mM (inactive)
9,c1ccc2[nH]c(-c3cscn3)nc2c1,> 4 mM (inactive)
10,CC(C(N)=O)N1C(=O)c2ccccc2C1=O (stereo not given),> 4 mM (inactive)
11,Nc1ncnc2c1ncn2[C@@H]1O[C@H](CO)[C@@H](O)[C@H]1O,> 4 mM (inactive)
12,NC1=NC(=O)/C(=C/c2cccs2)S1,> 4 mM (inactive)
13,COc1ccc2[nH]cc(CCN(C)C)c2c1,> 4 mM (inactive)
14,Cc1cc(C)n(CC(=O)NC2CCCCC2)n1,> 4 mM (inactive)
15,COc1ccc(C2NC(C(=O)O)CS2)cc1 (stereo not given),> 4 mM (inactive)
16,CC(=O)Nc1ccn(Cc2c(F)cccc2Cl)n1,> 4 mM (inactive)
17,Cc1ccccc1N1CCN(C(=O)C2CCCCC2)CC1,> 4 mM (inactive)
18,Cc1noc(C)c1C(=O)Nc1cccnc1,> 4 mM (inactive)
19,CC1(C)Cc2nc(N3CCOCC3)c(C#N)cc2CO1,> 4 mM (inactive)
20,NCc1ccc2c(c1)OCCO2,> 4 mM (inactive)
21,CCn1nnnc1Oc1ccc(Cl)cc1,> 4 mM (inactive)
22,Cn1cnc2cc(NC(=O)c3ccco3)ccc21,> 4 mM (inactive)
23,CC(C)(CO)NC(=O)c1ccccc1F,> 4 mM (inactive)
24,O=[N+]([O-])c1cccc(-c2c[n+](=O)c3c(n2[O-])CCC3)c1,> 4 mM (inactive)

row,SMILES,Kd
1,CC(=O)Nc1cccc(-c2nc3ccccc3c(=O)o2)c1,> 4 mM (inactive)
2,NC(=O)Cn1nnc(-c2ccc(C(F)(F)F)cc2)n1,> 4 mM (inactive)
3,CC1CC[C@@]2(OC1)O[C@H]1CC3C4CC[C@@H]5C[C@@H](O)CC[C@]5(C)C4CC[C@]3(C)[C@H]1[C@@H]2C (stereo not given in full),> 4 mM (inactive)
4,NC1=NC(=O)/C(=C\c2cccc(C(=O)O)c2)S1,> 4 mM (inactive)
5,O=c1ccc2c([nH]1)CCCC2,> 4 mM (inactive)
6,O=C(O)c1csc(-c2cccs2)n1,> 4 mM (inactive)
7,CS(C)=C1C(=O)NC(=O)N(c2ccccc2)C1=O,> 4 mM (inactive)
8,COc1ccc(-c2cn[nH]c2N)c(OC)c1,> 4 mM (inactive)
9,O=C1C=CC2=C3c4cc(O)c(O)cc4CC3(O)COC2=C1O (stereo not given),> 4 mM (inactive)
10,Cc1ccccc1C(=O)Nc1cccc(N)c1,> 4 mM (inactive)
11,O=C1c2ccccc2C(=O)N1Cc1ccco1,> 4 mM (inactive)
12,CN1CCCC1C(=O)O (stereo not given),> 4 mM (inactive)
13,COc1ccc(NC(=O)C(N)=O)cc1Cl,> 4 mM (inactive)
14,CN(C)C(=S)Nc1ccc([N+](=O)[O-])cc1,> 4 mM (inactive)
15,O=C(O)Cc1n[nH]c(=O)c2ccccc12,> 4 mM (inactive)
16,Nc1ccc(S(=O)(=O)Nc2ccc(F)cc2F)cc1,> 4 mM (inactive)
17,CNC(=O)C1=NCCCc2cc(OC)c(OC)cc21,> 4 mM (inactive)
18,Cc1ccccc1NS(=O)(=O)c1ccc(F)cc1,> 4 mM (inactive)
19,CCOC(=O)CSc1nnc(C)c(=O)[nH]1,> 4 mM (inactive)
20,COc1c(C(=O)N2CCCC2)ccc2ccccc12,> 4 mM (inactive)
21,COc1ccc(C(=O)O)cc1OC,> 4 mM (inactive)
22,Cc1nnsc1C(=O)Nc1cccc(S(N)(=O)=O)c1,> 4 mM (inactive)
23,Cc1nn(-c2ccccc2)nc1CN,> 4 mM (inactive)
24,CC(C)CCn1cnc2c1c(=O)n(C)c(=O)n2C,> 4 mM (inactive)

row,SMILES,Kd
1,Clc1ncnc2[nH]ncc12,> 4 mM (inactive)
2,O=C(O)c1ccc2nsnc2c1,> 4 mM (inactive)
3,O=C1C=CC(=O)N1c1ccc(N2CCOCC2)cc1,> 4 mM (inactive)
4,O=C(O)CCC(=O)Nc1nnc(C(F)(F)F)s1,> 4 mM (inactive)
5,O=C1C2=C(SCCS2)C(=O)N1CCCO,> 4 mM (inactive)
6,CN1C(CC(=O)c2ccccc2)CCCC1CC(O)c1ccccc1 (stereo not given),> 4 mM (inactive)
7,N[C@@H](CCC(=O)N[C@@H](CS)C(=O)NCC(=O)O)C(=O)O,> 4 mM (inactive)
8,O=C(Nc1ccon1)c1ccccc1Cl,> 4 mM (inactive)
9,O=C(O)CS(=O)(=O)c1ccccc1[N+](=O)[O-],> 4 mM (inactive)
10,Cc1cc(C(=O)Nc2nnc(C(F)(F)F)s2)no1,> 4 mM (inactive)
11,Cc1cc(N2CCN(C)CC2)ncn1,> 4 mM (inactive)
12,Cc1sc2nc(NCCO)[nH]c(=O)c2c1C,> 4 mM (inactive)
13,COc1cc(O)c2c(c1)C(=O)c1cc(C)cc(O)c1C2=O,> 4 mM (inactive)
14,O=C(NC(=S)NN1CCOCC1)c1cccs1,> 4 mM (inactive)
15,Cc1c(C(=O)Nc2ccncc2)oc2c1C(=O)CC(C)(C)C2,> 4 mM (inactive)
16,Cn1ccc(C(=O)NC(=S)NN2CCOCC2)n1,> 4 mM (inactive)
17,CCSc1nnc2[nH]c(=O)cc(C)n12,> 4 mM (inactive)
18,CCCCn1c(S(=O)(=O)O)nc2ccccc21,> 4 mM (inactive)
19,NC(=O)CSc1ccc2nnc(-c3cccs3)n2n1,> 4 mM (inactive)
20,CC(C)(C)NC(=O)N1CCC(C(N)=O)CC1,> 4 mM (inactive)
21,O=C1CCC(=O)N1CNc1ccccc1,> 4 mM (inactive)
22,CN1CCN(C2CCSC2)CC1 (stereo not given),> 4 mM (inactive)
23,O=C(Nn1cnnc1)c1csc2c1CCCC2,> 4 mM (inactive)
24,Cc1cc(C)c(NC(=O)CN2CCC(O)CC2)c(C)c1,> 4 mM (inactive)

row,SMILES,Kd
1,O=C(O)CNC(=O)c1ccccc1Cl,> 4 mM (inactive)
2,NCc1cccc2c1OCCCO2,> 4 mM (inactive)
3,Cc1ccc(-n2nnnc2SCC(N)=O)c(C)c1,> 4 mM (inactive)
4,COc1cccc2c(=O)n(CC(N)=O)ccc12,> 4 mM (inactive)
5,COC(=O)CCC(C)[C@H]1CCC2C3C(C[C@H](O)[C@@]21C)[C@@]1(C)CC[C@@H](O)C[C@H]1C[C@H]3O (stereo not given in full),> 4 mM (inactive)
6,NC1=NC(=O)C(Cc2ccccc2)S1 (stereo not given),> 4 mM (inactive)
7,Nc1ccccc1N=C1CNC(=O)C1,> 4 mM (inactive)
8,Cc1nn2c(-c3ccncc3)nnc2c2ccccc12,> 4 mM (inactive)
9,NC(=O)C(=O)NCc1ccc(Cl)cc1,> 4 mM (inactive)
10,CC(C)CC(=O)NC1CCSC1=O (stereo not given),> 4 mM (inactive)
11,CCn1cnc2sc(C(=O)O)c(C)c2c1=O,> 4 mM (inactive)
12,COC(=O)c1ccc(Cl)c(NC(C)=O)c1,> 4 mM (inactive)
13,O=C(O)c1ccc(-c2cccs2)cc1,> 4 mM (inactive)
14,Cc1[nH]n(-c2ccccc2)c(=O)c1[N+](=O)[O-],> 4 mM (inactive)
15,Cc1cc(=O)n(CC(C)C)c(O)c1C#N,> 4 mM (inactive)
16,CC(=O)OC1CCC23CC1(C)CCC2C(C)(C)CC3OC(C)=O (stereo not given),> 4 mM (inactive)
17,C=CCNC(=O)c1nn2cccnc2c1Cl,> 4 mM (inactive)
18,CC1(C)C(=O)[C@@H]2O[C@@H]2[C@@]2(C)C1C[C@@H](O)[C@]1(C)C2CC[C@@]2(C)[C@H](c3ccoc3)OC(=O)C3OC321 (stereo not given in full),> 4 mM (inactive)
19,CC(=O)Nc1sccc1C(=O)NC(N)=O,> 4 mM (inactive)
20,Cc1cc(NC(=O)c2ccc3c(c2)OCO3)no1,> 4 mM (inactive)
21,COC(=O)c1ccc2nsnc2c1,> 4 mM (inactive)
22,CC(C)C(=O)NCC(c1ccco1)N1CCOCC1 (stereo not given),> 4 mM (inactive)
23,O=C(NCc1ccccc1)c1cnsn1,> 4 mM (inactive)
24,CSc1ccccc1NC(=O)c1ccoc1C,> 4 mM (inactive)

row,SMILES,Kd
1,c1ccc(CN2CCC3(CC2)Nc2ccccc2CO3)cc1,> 4 mM (inactive)
2,CSc1ccc(C(=S)N2CCN(C)CC2)cc1,> 4 mM (inactive)
3,COc1cc(C2NC(=S)NC(C)=C2C(C)=O)ccc1O (stereo not given),> 4 mM (inactive)
4,CC(=O)Oc1cc2c(C(C)=O)coc2c2ccccc12,> 4 mM (inactive)
5,CC(C)NC(=O)c1nc2ccccc2s1,> 4 mM (inactive)
6,COC(=O)C1CSCC1=O (stereo not given),> 4 mM (inactive)
7,CN1C(=O)c2ccc(C(=O)NCc3ccccc3)cc2C1=O,> 4 mM (inactive)
8,O=c1c(O)c(-c2ccc(O)c(O)c2)oc2cc(O)ccc12,> 4 mM (inactive)
9,CC(NC(=O)C1CCCCC1)C(=O)NC1=NCCS1 (stereo not given),> 4 mM (inactive)
10,NC(=O)c1c(Cl)nsc1-c1ccccc1Cl,> 4 mM (inactive)
11,COC(=O)C1CCc2ccccc2N1 (stereo not given),> 4 mM (inactive)
12,O=C(O)CCNc1n[nH]c(=O)[nH]c1=O,> 4 mM (inactive)
13,CC(=O)Nc1nnc(-c2ccccc2)o1,> 4 mM (inactive)
14,Cn1cc(Cl)c(C(=O)NC2CCCCCC2)n1,> 4 mM (inactive)
15,Cn1c([O-])c([N+](C)(C)C)c(=O)n(C)c1=O,> 4 mM (inactive)
16,O=C1C2C3CCC(O3)C2C(=O)N1c1cccc(F)c1 (stereo not given),> 4 mM (inactive)
17,NC(=NCCC[C@H](N)C(=O)O)NC(CCC(=O)O)C(=O)O (stereo not given in full),> 4 mM (inactive)
18,CNC(=O)C(=O)Nc1ccc(C)c(C)c1,> 4 mM (inactive)
19,Cc1nc(-c2ccc(CO)s2)cs1,> 4 mM (inactive)
20,CC(CCC(=O)O)[C@H]1CCC2C3CC[C@@H]4C[C@H](O)CC[C@]4(C)C3C[C@H](O)[C@@]21C (stereo not given in full),> 4 mM (inactive)
21,COc1cc([C@@H]2c3cc4c(cc3[C@H](O)[C@H]3COC(=O)[C@H]23)OCO4)cc(OC)c1OC,> 4 mM (inactive)
22,CC1CN(C(=O)c2ccncc2)CC(C)O1 (stereo not given),> 4 mM (inactive)
23,Cn1nnc2cc(C(=O)Nc3cccnc3)ccc21,> 4 mM (inactive)
24,COc1ccc(-c2c(O)c3c(OC)c4c(cc3oc2=O)OC(C)(C)CC4)cc1,> 4 mM (inactive)
